Assays:
[1] = system: LS-411N (Colorectal Carcinoma); test: combination Emax (second highest fraction inhibited in the dose matrix, 72 h); higher = more inhibition; extreme values may be limits of the assay
Procedure, shortened: (§1)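 Bliss excess equals the observed combination effect minus the expected value EA + EB − EA·EB, where EA and EB are the effects of each agent alone. Combination Emax is the second-highest inhibition within the matrix. Inhibition was scaled from CellTiter-Glo 2.0 luminescence, with 0 set by vehicle wells and 1 by blank wells, after 72 hours of two-drug dosing of cells plated in 1536-well plates.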

[2] = system: ESO26 (Esophageal Adenocarcinoma); test: as above
Procedure, shortened: as §1

WM1552C (Melanoma) = test: as above
Procedure, shortened: as §1

[3] = system: HCC1395 (Breast Carcinoma); test: as above
Procedure, shortened: as §1

[4] = system: HT55 (Colorectal Carcinoma); test: as above
Procedure, shortened: as §1

[5] = system: NCI-H716 (Colorectal Carcinoma); test: Bliss excess, mean over the matrix (fraction); higher = more synergy
Procedure, shortened: as §1

[6] = system: HCC1428 (Breast Carcinoma); test: as above
Procedure, shortened: as §1

HCC70 (Breast Carcinoma) = test: as above
Procedure, shortened: as §1

EB2 (Burkitt's Lymphoma) = test: as above
Procedure, shortened: as §1

[7] = system: NCI-H1651 (Lung Adenocarcinoma); test: as above
Procedure, shortened: as §1

[8] = system: DU-4475 (Breast Carcinoma); test: as above
Procedure, shortened: as §1

EW-16 (Ewing's Sarcoma) = test: as above
Procedure, shortened: as §1

[9] = system: CAL-27 (Oral Cavity Carcinoma); test: as above
Procedure, shortened: as §1

[10] = system: JHH-2 (Hepatocellular Carcinoma); test: as above
Procedure, shortened: as §1

EW-7 (Ewing's Sarcoma) = test: as above
Procedure, shortened: as §1

IM-9 (Non-Cancerous) = test: as above
Procedure, shortened: as §1

[11] = system: EPLC-272H (Other Solid Carcinomas); test: as above
Procedure, shortened: as §1

769-P (Kidney Carcinoma) = test: as above
Procedure, shortened: as §1

[12] = system: KYSE-220 (Esophageal Squamous Cell Carcinoma); test: as above
Procedure, shortened: as §1

[13] = system: JIMT-1 (Breast Carcinoma); test: as above
Procedure, shortened: as §1

Compound | combination Emax [1] | combination Emax [2] | combination Emax (WM1552C (Melanoma)) | combination Emax [3] | combination Emax [4] | Bliss excess [5] | Bliss excess [6] | Bliss excess (HCC70 (Breast Carcinoma)) | Bliss excess (EB2 (Burkitt's Lymphoma)) | Bliss excess [7] | Bliss excess [8] | Bliss excess (EW-16 (Ewing's Sarcoma)) | Bliss excess [9] | Bliss excess [10] | Bliss excess (EW-7 (Ewing's Sarcoma)) | Bliss excess (IM-9 (Non-Cancerous)) | Bliss excess [11] | Bliss excess (769-P (Kidney Carcinoma)) | Bliss excess [12] | Bliss excess [13]
CN(C)CCCOc1ccc(-c2ccc3ncc4c(c3c2)n(C2CCOCC2)c(=O)n4C)cn1 [AZD0156] + C=CCn1c(=O)c2cnc(Nc3ccc(N4CCN(C)CC4)cc3)nc2n1-c1cccc(C(C)(C)O)n1 [AZD1775] (first compound max 1 µM, partner max 1 µM) | 0.641 | 0.458 | 0.476 | 0.682 | 0.407 | 0.022 | -0.115 | -0.0682 | -0.0322 | -0.0046 | -0.0036 | -0.0464 | -0.0539 | -0.0233 | 0.039 | 0.007 | -0.0105 | -0.0025 | -0.0432 | -0.0287
CN(C)CCCOc1ccc(-c2ccc3ncc4c(c3c2)n(C2CCOCC2)c(=O)n4C)cn1 [AZD0156] + CCN(CCO)CCCOc1ccc2c(Nc3cc(CC(=O)Nc4cccc(F)c4)[nH]n3)ncnc2c1 [AZD2811] (first compound max 1 µM, 7x7, partner max 1 µM) | 0.137 | 0.0581 | 0.242 | 0.193 | 0.16 | -0.0063 | -0.06 | -0.0184 | -0.0245 | -0.0167 | -0.0135 | 0.0083 | -0.0054 | -0.031 | 0.0718 | -0.0416 | 0.0394 | -0.0343 | -0.0095 | -0.0181
CN(C)CCCOc1ccc(-c2ccc3ncc4c(c3c2)n(C2CCOCC2)c(=O)n4C)cn1 [AZD0156] + C[C@@H]1COCCN1C2=NC(=NC(=C2)C3(CC3)[S@](=N)(=O)C)C4=C5C=CNC5=NC=C4 [AZD6738] (first compound max 1 µM, 7x7, partner max 10 µM) | 0.808 | 0.414 | 0.783 | 0.8 | 0.514 | 0.0459 | -0.0541 | -0.0103 | -0.0562 | -0.0468 | -0.0587 | -0.0074 | 0.0433 | -0.0249 | 0.0318 | 0.05 | 0.0156 | 0.0253 | 0.0134 | 0.0042
CN(C)CCCOc1ccc(-c2ccc3ncc4c(c3c2)n(C2CCOCC2)c(=O)n4C)cn1 [AZD0156] + O=C(c1cc(Cc2n[nH]c(=O)c3ccccc23)ccc1F)N1CCN(C(=O)C2CC2)CC1 [Olaparib] (first compound max 3 µM, partner max 3 µM) | 0.349 | 0.206 | 0.324 | 0.315 | 0.209 | 0.002 | 0.0051 | -0.0548 | 0.0892 | 0.132 | 0.117 | 0.0975 | 0.0602 | 0.0203 | 0.119 | 0.275 | -0.0122 | -0.0148 | 0.191 | -0.0233
C=CCn1c(=O)c2cnc(Nc3ccc(N4CCN(C)CC4)cc3)nc2n1-c1cccc(C(C)(C)O)n1 [AZD1775] + C1CN(CCC1(C(=O)N[C@@H](CCO)C2=CC=C(C=C2)Cl)N)C3=NC=NC4=C3C=CN4 [Capivasertib] (first compound max 3 µM, partner max 3 µM) | 0.878 | 0.707 | 0.719 | 0.777 | 0.831 | -0.034 | -0.0203 | -0.0235 | -0.0204 | -0.0367 | 0.0203 | -0.0481 | -0.0197 | -0.122 | 0.0149 | -0.0157 | -0.0011 | -0.0475 | -0.0206 | 0.0069
C=CCn1c(=O)c2cnc(Nc3ccc(N4CCN(C)CC4)cc3)nc2n1-c1cccc(C(C)(C)O)n1 [AZD1775] + C[C@@H]1COCCN1C2=NC(=NC(=C2)C3(CC3)[S@](=N)(=O)C)C4=C5C=CNC5=NC=C4 [AZD6738] (first compound max 1 µM, partner max 10 µM) | 0.77 | 0.399 | 0.805 | 0.896 | 0.782 | -0.0004 | 0.0035 | -0.0312 | 0.0589 | -0.0105 | 0.0549 | 0.0132 | 0.0428 | -0.0817 | -0.0435 | 0.0274 | 0.0036 | 0.0092 | 0.0242 | -0.01
C=CCn1c(=O)c2cnc(Nc3ccc(N4CCN(C)CC4)cc3)nc2n1-c1cccc(C(C)(C)O)n1 [AZD1775] + O=C(c1cc(Cc2n[nH]c(=O)c3ccccc23)ccc1F)N1CCN(C(=O)C2CC2)CC1 [Olaparib] (first compound max 1 µM, partner max 10 µM) | 0.417 | 0.474 | 0.486 | 0.719 | 0.454 | -0.0695 | -0.0279 | -0.0479 | -0.019 | -0.0869 | 0.0395 | -0.0129 | -0.0431 | -0.0609 | -0.0704 | -0.0305 | 0.0169 | -0.0578 | -0.0428 | -0.0795
CCN(CCO)CCCOc1ccc2c(Nc3cc(CC(=O)Nc4cccc(F)c4)[nH]n3)ncnc2c1 [AZD2811] + C=CCn1c(=O)c2cnc(Nc3ccc(N4CCN(C)CC4)cc3)nc2n1-c1cccc(C(C)(C)O)n1 [AZD1775] (first compound max 1 µM, partner max 1 µM) | 0.641 | 0.604 | 0.424 | 0.682 | 0.376 | 0.0847 | -0.0478 | -0.0112 | -0.0165 | -0.0268 | 0.0523 | -0.0134 | 0.0013 | 0.0198 | 0.0623 | -0.0297 | -0.0341 | -0.0267 | -0.0225 | -0.0159
CCN(CCO)CCCOc1ccc2c(Nc3cc(CC(=O)Nc4cccc(F)c4)[nH]n3)ncnc2c1 [AZD2811] + C[C@@H]1COCCN1C2=NC(=NC(=C2)C3(CC3)[S@](=N)(=O)C)C4=C5C=CNC5=NC=C4 [AZD6738] (first compound max 1 µM, 7x7, partner max 10 µM) | 0.819 | 0.0804 | 0.642 | 0.785 | 0.515 | -0.0765 | -0.0369 | -0.131 | 0.0038 | -0.0555 | 0.0045 | -0.018 | -0.0452 | -0.0196 | -0.0469 | -0.0441 | 0.0137 | -0.0107 | -0.0541 | -0.0203
CCN(CCO)CCCOc1ccc2c(Nc3cc(CC(=O)Nc4cccc(F)c4)[nH]n3)ncnc2c1 [AZD2811] + O=C(c1cc(Cc2n[nH]c(=O)c3ccccc23)ccc1F)N1CCN(C(=O)C2CC2)CC1 [Olaparib] (first compound max 1 µM, 7x7, partner max 10 µM) | 0.149 | 0 | 0.377 | 0.328 | 0.291 | 0.0047 | -0.0081 | -0.0249 | 0.0141 | 0.0136 | 0.0213 | 0.0661 | 0.0484 | -0.0748 | 0.0067 | -0.0191 | 0.0042 | -0.018 | 0.01 | -0.0127
CN(CCO)CC[C@H](CSc1ccccc1)Nc1ccc(S(=O)(=O)NC(=O)c2ccc(N3CCC([C@@H](O)c4ccccc4-c4ccc(Cl)cc4)CC3)cc2)cc1S(=O)(=O)C(F)(F)F [AZD4320] + CN(C)CCCOc1ccc(-c2ccc3ncc4c(c3c2)n(C2CCOCC2)c(=O)n4C)cn1 [AZD0156] (first compound max 1 µM, 7x7, partner max 1 µM) | 0.199 | 0.153 | 0.163 | 0.202 | 0.161 | -0.0214 | 0.0307 | -0.0321 | -0.0028 | -0.026 | -0.0498 | -0.003 | -0.0136 | -0.0486 | 0.0524 | -0.0621 | 0.0102 | -0.0444 | -0.0385 | -0.0344
COc1nnc2ccc(N3CCC(c4ccc(OCCN5CCN(C)C(=O)[C@H]5C)cc4)CC3)nn12 [AZD5153] + C=CCn1c(=O)c2cnc(Nc3ccc(N4CCN(C)CC4)cc3)nc2n1-c1cccc(C(C)(C)O)n1 [AZD1775] (first compound max 1 µM, partner max 1 µM) | 0.889 | 0.757 | 0.439 | 0.524 | 0.81 | -0.0734 | -0.0221 | -0.0339 | -0.135 | 0.0305 | 0.0311 | -0.037 | -0.0481 | -0.1 | -0.0403 | -0.107 | -0.0939 | -0.0321 | -0.0622 | -0.0054
Cc1c2c(nn1C)CSCc1cc(n(C)n1)CSc1cc(c3ccccc3c1)OCCCc1c(C(=O)O)n(C)c3c-2c(Cl)ccc13 [AZD5991] + C=CCn1c(=O)c2cnc(Nc3ccc(N4CCN(C)CC4)cc3)nc2n1-c1cccc(C(C)(C)O)n1 [AZD1775] (first compound max 1 µM, partner max 1 µM) | 0.741 | 0.683 | 0.779 | 0.88 | 0.715 |  | -0.0407 | 0.0278 | -0.0969 | -0.11 | -0.0582 | -0.0392 | -0.0508 | -0.063 | 0.0015 | -0.054 | 0.0188 | -0.071 | 0.0181 | 0.0464
CS(=O)(=O)CCNCc1ccc(-c2ccc3ncnc(Nc4ccc(OCc5cccc(F)c5)c(Cl)c4)c3c2)o1 [Lapatinib] + NC1(c2ccc(-c3nc4ccn5c(=O)[nH]nc5c4cc3-c3ccccc3)cc2)CCC1 [MK-2206] (first compound max 10 µM, 7x7, partner max 10 µM) | 0.295 |  | 0.767 | 0.969 |  |  | 0.0023 | 0.024 | -0.0348 | -0.0008 | 0.0428 |  |  | -0.0371 | 0.0239 | 0.0096 |  | 0.0372 | -0.0099 | 
CCc1c2c(nc3ccc(O)cc13)-c1cc3c(c(=O)n1C2)COC(=O)[C@]3(O)CC [SN-38] + O=C(c1cc(Cc2n[nH]c(=O)c3ccccc23)ccc1F)N1CCN(C(=O)C2CC2)CC1 [Olaparib] (first compound max 0.3 µM, 7x7, partner max 10 µM) | 0.304 | 0.764 | 0.609 | 0.518 | 0.489 |  |  | 0.0458 | 0.0348 | 0.0252 | -0.0271 | 0.076 |  | -0.0442 | 0.0538 | 0.0871 | 0.071 | 0.0592 | 0.0078 | 0.035
